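96-well plates; 48 h exposure; 5 concentrations. Endpoints by linear interpolation between flanking doses. Not reached: highest tested concentration assigned. TGI is the concentration that stops growth completely.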
Assays:
Test in all cases: inhibition of tumour cell growth, NCI panel, 48 h
[1] = test system: BT-549 breast
[2] = test system: NCI-H226 lung
[3] = test system: MDA-MB-231 breast
[4] = test system: OVCAR-3 ovarian
[5] = test system: K-562 leukemia
[6] = test system: ACHN renal
[7] = test system: RXF 393 renal
[8] = test system: UACC-62 melanoma
[9] = test system: U251 CNS
[10] = test system: EKVX NSCLC
[11] = test system: SF-295 CNS
[12] = test system: MCF7 breast
[13] = test system: HCC-2998 colon
[14] = test system: M14 melanoma
[15] = test system: NCI-H522 lung
[16] = test system: PC-3 prostate
[17] = test system: MDA-N
[18] = test system: HOP-62 NSCLC
[19] = test system: TK-10 renal
[20] = test system: SF-539 CNS
[21] = test system: LOX IMVI melanoma
[22] = test system: CAKI-1 renal
[23] = test system: SNB-19 CNS
[24] = test system: NCI/ADR-RES ovarian
[25] = test system: MALME-3M melanoma
[26] = test system: SK-MEL-2 melanoma
[27] = test system: SNB-75 CNS
[28] = test system: NCI-H460 lung
[29] = test system: SF-268 CNS
[30] = test system: 786-0 renal
[31] = test system: OVCAR-4 ovarian
[32] = test system: MDA-MB-435
[33] = test system: UACC-257 melanoma
[34] = test system: NCI-H23 lung
[35] = test system: HL-60(TB) leukemia
[36] = test system: HS 578T breast
[37] = test system: SN12C renal
[38] = test system: HOP-92 NSCLC
[39] = test system: SK-MEL-5 melanoma
[40] = test system: OVCAR-5 ovarian
[41] = test system: DU-145 prostate
[42] = test system: HCT-116 colon
[43] = test system: CCRF-CEM leukemia
[44] = test system: IGROV1 ovarian
[45] = test system: HT29 colon
[46] = test system: MOLT-4 leukemia
[47] = test system: A498 renal
[48] = test system: A549 NSCLC
[49] = test system: SW-620 colon
[50] = test system: HCT-15 colon
[51] = test system: UO-31 renal
[52] = test system: SK-OV-3 ovarian
[53] = test system: T-47D breast
[54] = test system: OVCAR-8 ovarian
[55] = test system: RPMI-8226 leukemia
[56] = test system: SK-MEL-28 melanoma
[57] = test system: COLO 205 colon
[58] = test system: SR leukemia
[59] = test system: KM12 colon

## CC(=O)O[C@H]1C(=O)[C@]2(C)[C@@H](OC(=O)OCCC(O)CO)C[C@H]3OC[C@@]3(OC(C)=O)[C@H]2[C@H](OC(=O)c2ccccc2)[C@]2(O)C[C@H](OC(=O)[C@H](O)[C@@H](NC(=O)c3ccccc3)c3ccccc3)C(C)=C1C2(C)C (stereo partly drawn)
[1]
  TGI: 15.9 µM
[2]
  TGI: 0.576 µM
[3]
  TGI: 3.7 µM
[4]
  TGI: 0.0932 µM
[5]
  TGI: > 100 µM
[6]
  TGI: > 100 µM
[7]
  TGI: 17.9 µM
[8]
  TGI: 24.8 µM
[9]
  TGI: 18 µM
[10]
  TGI: > 100 µM
[11]
  TGI: 1.12 µM
[12]
  TGI: > 35 µM
[13]
  TGI: 0.32 µM
[14]
  TGI: 7.16 µM
[15]
  TGI: < 0.01 µM
[16]
  TGI: > 36.2 µM
[17]
  TGI: < 0.01 µM
[18]
  TGI: 21.6 µM
[19]
  TGI: > 61.2 µM
[20]
  TGI: 0.0297 µM
[21]
  TGI: 20.4 µM
[22]
  TGI: > 42.3 µM
[23]
  TGI: 88.4 µM
[24]
  TGI: > 100 µM
[25]
  TGI: 16.3 µM
[26]
  TGI: 46.8 µM
[27]
  TGI: 0.158 µM
[28]
  TGI: 2.05 µM
[29]
  TGI: 34.9 µM
[30]
  TGI: 6.05 µM
[31]
  TGI: > 94.3 µM
[32]
  TGI: < 0.01 µM
[33]
  TGI: 21.4 µM
[34]
  TGI: 21.7 µM
[35]
  TGI: < 0.0106 µM
[36]
  TGI: 0.479 µM
[37]
  TGI: 19.8 µM
[38]
  TGI: 25.2 µM
[39]
  TGI: 13.1 µM
[40]
  TGI: > 36.6 µM
[41]
  TGI: 0.0657 µM
[42]
  TGI: 5.65 µM
[43]
  TGI: 0.0462 µM
[44]
  TGI: 19.8 µM
[45]
  TGI: 0.526 µM
[46]
  TGI: 12.7 µM
[47]
  TGI: 21.6 µM
[48]
  TGI: > 100 µM
[49]
  TGI: > 46.4 µM
[50]
  TGI: > 100 µM
[51]
  TGI: > 100 µM

## CC(C)/C(Cl)=N\OC(=O)Nc1ccc(S(N)(=O)=O)cc1
[1]
  TGI: 21.3 µM
[2]
  TGI: 45.5 µM
[3]
  TGI: 25.9 µM
[4]
  TGI: 28.2 µM
[5]
  TGI: 5.52 µM
[52]
  TGI: 31.5 µM
[6]
  TGI: 26.8 µM
[7]
  TGI: 25.2 µM
[8]
  TGI: 37 µM
[9]
  TGI: 35.7 µM
[10]
  TGI: 32.6 µM
[53]
  TGI: 52 µM
[54]
  TGI: 32 µM
[11]
  TGI: 29.3 µM
[12]
  TGI: 27.7 µM
[13]
  TGI: 32.7 µM
[14]
  TGI: 22.1 µM
[15]
  TGI: 2.55 µM
[16]
  TGI: 32.6 µM
[55]
  TGI: 4.97 µM
[17]
  TGI: 32.9 µM
[18]
  TGI: > 57.2 µM
[19]
  TGI: 31.8 µM
[20]
  TGI: 31.5 µM
[21]
  TGI: 7 µM
[22]
  TGI: 31.1 µM
[23]
  TGI: > 78.7 µM
[24]
  TGI: 40.5 µM
[25]
  TGI: 10.1 µM
[26]
  TGI: 34.1 µM
[27]
  TGI: 25.4 µM
[28]
  TGI: 41.6 µM
[29]
  TGI: 51.7 µM
[30]
  TGI: 31 µM
[31]
  TGI: 40.1 µM
[33]
  TGI: 32.4 µM
[34]
  TGI: 37.8 µM
[56]
  TGI: 31.3 µM
[57]
  TGI: 3.92 µM
[58]
  TGI: 5.17 µM
[36]
  TGI: 63.5 µM
[59]
  TGI: 33.3 µM
[37]
  TGI: 29.2 µM
[38]
  TGI: 10.1 µM
[39]
  TGI: 29.4 µM
[40]
  TGI: 33.8 µM
[41]
  TGI: 31.8 µM
[42]
  TGI: 27.7 µM
[43]
  TGI: 6.49 µM
[44]
  TGI: 33.9 µM
[45]
  TGI: 48.4 µM
[46]
  TGI: 5.42 µM
[47]
  TGI: 31.7 µM
[48]
  TGI: 37.9 µM
[49]
  TGI: 3.41 µM
[50]
  TGI: 31.6 µM
[51]
  TGI: 30.2 µM

## CCC[C@@H](O)C[C@@H]1CCC[C@H](C[C@@H](O)CC)N1C
[1]
  TGI: > 100 µM
[2]
  TGI: > 100 µM
[3]
  TGI: > 100 µM
[4]
  TGI: > 100 µM
[5]
  TGI: > 100 µM
[52]
  TGI: > 100 µM
[6]
  TGI: > 100 µM
[8]
  TGI: > 100 µM
[9]
  TGI: > 100 µM
[10]
  TGI: > 100 µM
[53]
  TGI: > 100 µM
[54]
  TGI: > 100 µM
[11]
  TGI: > 100 µM
[12]
  TGI: > 100 µM
[13]
  TGI: > 100 µM
[14]
  TGI: > 100 µM
[15]
  TGI: 30.7 µM
[16]
  TGI: > 100 µM
[55]
  TGI: > 100 µM
[17]
  TGI: > 100 µM
[18]
  TGI: > 100 µM
[19]
  TGI: > 100 µM
[20]
  TGI: > 100 µM
[21]
  TGI: > 100 µM
[22]
  TGI: > 100 µM
[23]
  TGI: > 100 µM
[24]
  TGI: > 100 µM
[26]
  TGI: > 100 µM
[29]
  TGI: 45.1 µM
[30]
  TGI: > 100 µM
[31]
  TGI: > 100 µM
[32]
  TGI: > 100 µM
[33]
  TGI: > 100 µM
[34]
  TGI: > 100 µM
[56]
  TGI: > 100 µM
[35]
  TGI: > 100 µM
[57]
  TGI: > 100 µM
[58]
  TGI: > 100 µM
[59]
  TGI: > 100 µM
[37]
  TGI: > 100 µM
[38]
  TGI: 5.06 µM
[39]
  TGI: > 100 µM
[40]
  TGI: > 100 µM
[41]
  TGI: > 100 µM
[42]
  TGI: > 100 µM
[43]
  TGI: > 100 µM
[44]
  TGI: > 100 µM
[45]
  TGI: > 100 µM
[46]
  TGI: > 100 µM
[47]
  TGI: > 100 µM
[48]
  TGI: > 100 µM
[49]
  TGI: > 100 µM
[50]
  TGI: > 100 µM
[51]
  TGI: > 100 µM

## O=C1OCC(O)=C1C(c1ccc(Cl)cc1)c1cc2c(cc1O)OCO2 (stereo not drawn)
[1]
  TGI: > 100 µM
[2]
  TGI: > 100 µM
[3]
  TGI: > 100 µM
[4]
  TGI: > 100 µM
[5]
  TGI: > 100 µM
[52]
  TGI: > 100 µM
[6]
  TGI: > 100 µM
[7]
  TGI: > 100 µM
[8]
  TGI: > 100 µM
[10]
  TGI: > 100 µM
[12]
  TGI: > 100 µM
[13]
  TGI: > 100 µM
[14]
  TGI: > 100 µM
[16]
  TGI: > 100 µM
[17]
  TGI: > 100 µM
[18]
  TGI: > 100 µM
[19]
  TGI: > 100 µM
[20]
  TGI: > 100 µM
[21]
  TGI: > 100 µM
[22]
  TGI: > 100 µM
[23]
  TGI: > 100 µM
[24]
  TGI: > 100 µM
[25]
  TGI: > 100 µM
[26]
  TGI: > 100 µM
[27]
  TGI: > 100 µM
[28]
  TGI: > 100 µM
[29]
  TGI: > 100 µM
[30]
  TGI: > 100 µM
[31]
  TGI: > 100 µM
[32]
  TGI: > 100 µM
[56]
  TGI: > 100 µM
[35]
  TGI: > 100 µM
[57]
  TGI: > 100 µM
[58]
  TGI: > 100 µM
[36]
  TGI: > 100 µM
[59]
  TGI: > 100 µM
[37]
  TGI: > 100 µM
[38]
  TGI: > 100 µM
[39]
  TGI: > 100 µM
[40]
  TGI: > 100 µM
[41]
  TGI: > 100 µM
[42]
  TGI: > 100 µM
[43]
  TGI: > 100 µM
[44]
  TGI: > 100 µM
[45]
  TGI: > 100 µM
[46]
  TGI: > 100 µM
[47]
  TGI: > 100 µM
[48]
  TGI: > 100 µM
[49]
  TGI: > 100 µM
[50]
  TGI: > 100 µM
[51]
  TGI: > 100 µM
